According to US10729666B2, “Use of GABAA receptor reinforcing agent in preparation of sedative and anesthetic medicament” (Sichuan Haisco Pharmaceutical Co., Ltd., priority 2014, dated 2020):

How the values were obtained:
[1] = test system: ICR mice; experiment: Righting reflex experiment on mice; conditions: for Anesthesia maintenance time / SI / TI / Anesthesia induction time / HD7: intravenous; for Anesthesia maintenance time: loss until recovery of righting reflex; for ED50: Mus musculus, iv; for SI: safety index, LD5/ED95; for TI: therapeutic index, LD50/ED50; for Anesthesia induction time: end of administration until loss of righting reflex; for HD7: dose required to cause a 7-min anesthesia
Procedure: (§1) LD5 (5% lethal dose): dose required to cause 5% of animals to die in a test.
(§2) If a normal animal was able to immediately body-right after being pushed over or made lying on its back, such a reflex was determined as the righting reflex. Otherwise, loss of the righting reflex and the time of loss were recorded, and a reflex recovery time was recorded when the animal restored the righting reflex. The period from finishing of drug administration until loss of the righting reflex was recorded as the anesthesia induction time, and the period from loss of the righting reflex until recovery of the righting reflex was recorded as the anesthesia maintenance time.
(§3) TI (therapeutic index, i.e. LD50/ED50), SI (safety index, i.e. LD5/ED95).
(§4) MTD (maximum tolerated dose): the maximum dose able to cause 100% of animals to loss the righting index without death.
(§5) Indicators such as median effective dose (ED50), median lethal dose (LD50), therapeutic index (TI, i.e. LD50/ED50), safety index (SI, i.e. LD5/ED95), anesthesia induction time, anesthesia maintenance time, and maximum tolerated dose (MTD) were used to evaluate the effect and safety of anesthesia. […] After adapting to the laboratory environment, laboratory animals were fasted for 12 hours. On the next day, administration was carried out at 10 mg/kg body weight. Upon intravenous injection, the time of loss of the righting reflex was recorded. The period from finishing of drug administration until loss of the righting reflex was recorded as the anesthesia induction time, and the period from loss of the righting reflex until recovery of the righting reflex was recorded as the anesthesia maintenance time. The anesthesia induction time and the anesthesia maintenance time were used to indicate how strong an anesthetic effect was. Meanwhile, the dose required to cause a 7-min anesthesia (HD7) was measured and used to evaluate relative efficacy.

[2] = Righting reflex experiment on mice; conditions: both, ICR, mouse, in vivo, iv
Procedure: as §1, §2, §3, §4, §5

[3] = test system: healthy male volunteers; experiment: Preliminary pharmacodynamic studies with healthy humans; type: in vivo; conditions: single intravenous injection of the emulsion injection
Procedure: The subjects were fasted during the night for 6 hours or longer. The Emulsion injection of Compound 7 was administered by single intravenous injection. Groups 1 and 2 were administered by manual push injection for 2 to 3 seconds, and Groups 3-8 were administered by constant-rate pump injection for more than 1 min.
Primary indices include RASS and the tolerance to pain during injection (Verbal rating scale (VRS) was used to allow the researchers to know the pain degree of subjects); and secondary indices include cardiovascular indices and EEG (electroencephalogram) and BIS (Bispectral index) associated with the cognitive function recovery evaluation (QoR-40).

With `C[C@@H](c1cccc([C@H](C)C2CC2)c1O)C1CC1` [Compound 10, 2,6-bis[(1R)-1-cyclopropylethyl]phenol] the LD50 ([1]; ICR mice, intravenous injection, solvent 10% DMSO, 15% solutol HS15, 75% saline) was 6.3 mg/kg, the Anesthesia maintenance time ([1]; ICR mice) was 754.4 s and the ED50 [1] was 1.5 mg/kg. The SI ([1]; ICR mice) was 3.8, the TI ([1]; ICR mice) was 4.1 and the MTD [2] was 5 mg/kg.
`CC(C)c1cccc([C@@H](C)C2CC2)c1O` [Compound 8, 2-[(1S)-1-cyclopropylethyl]-6-isopropyl-phenol] showed an Anesthesia induction time ([1]; ICR mice) of less than 15.0 s, an Anesthesia maintenance time ([1]; ICR mice) of 1031.6 s and an ED50 [1] of 5.8 mg/kg. For the same molecule, the SI ([1]; ICR mice) was 3.5, the TI ([1]; ICR mice) was 7.5 and the LD50 [2] was 43.6 mg/kg. The MTD [2] was 20 mg/kg.
For `CC(C)c1cccc([C@H](C)C2CC2)c1O` [Compound 7, 2-[(1R)-1-cyclopropylethyl]-6-isopropyl-phenol], the “dose with which subjects started showing light anesthesia” value [3] was 0.128 mg/kg.
Work on `CC(C)c1cccc(C(C)C2CC2)c1O` (racemic) [Compound 1, 2-(1-cyclopropylethyl)-6-isopropylphenol] yielded an HD7 ([1]; ICR mice) of 6.0 mg/kg, an Anesthesia induction time ([1]; ICR mice) of less than 15.0 s and an Anesthesia maintenance time ([1]; ICR mice) of 660.4 s. It also gave an ED50 [1] of 3.7 mg/kg, an SI ([1]; ICR mice) of 1.7 and a TI ([1]; ICR mice) of 6.1. The MTD [2] was 10 mg/kg.
Molecule `C[C@H](c1cccc([C@H](C)C2CC2)c1O)C1CC1` [Compound 9, 2-[(1S)-1-cyclopropylethyl]-6-[(1R)-1-cyclopropylethyl]phenol] has an HD7 ([1]; ICR mice) of 2.5 mg/kg.
